These results are taken from patent US11958857B1, “5-(1H-indol-3-yl)-1,3-substitutedpyrimido[4,5-d]pyrimidine-2,4,7(1H,3H,8H)-trione as anticancer agents” (KING FAISAL UNIVERSITY, priority 2023, dated 2024).

Data set [1] has as its system A2780 cells (ovarian cancer). As to the kind of experiment: single dose MTT assay, A2780. The class given is cell-based. The settings on record: 10 μM, 48 h, Mean ± SEM of three independent experiments. The text has this:
(§1) All of the target compounds 5-(1H-indol-3-yl)-1,3-substituted pyrimido[4,5-d]pyrimidine-2,4,7(1H,3H,8H)-trione derivatives (4a-c) were subjected to a single dose MTT (3-(4,5-dimethylthiazol-2-yl)-2,5-diphenyltetrazolium bromide) assay to evaluate their cytotoxicity (growth-inhibiting activities) against the breast cancer (MCF-7, MDA-MB-231), ovarian cancer (A2780, SKOV-3) and cervical cancer (HELA) cell lines. Cell lines were obtained from ATCC (American Type Culture Collection). Doxorubicin was used as a positive control.
(§2) HELA and MCF-7 cells were seeded at 10000 cells/well, while MDA-MB-231, A2780, and SKOV-3 cells were seeded at 20000 cells/well in 96 well plates to ensure that cells were non-confluent and able to proliferate over the course of the assay period. After 24 h in culture, cells were treated with test compounds 5-(1H-indol-3-yl)-1,3-substituted pyrimido[4,5-d]pyrimidine-2,4,7(1H,3H,8H)-trione derivatives (4a-c) at a single dose of 10 μM concentration and incubated for 48 h. Cells were inspected under the microscope to detect any visible morphological changes. Cells were washed with PBS, and then the cells were treated with 100 μl of 1 mg/ml fresh filtered MTT suspended in a culture medium; the plates were covered with aluminum foil and incubated for 45 min. Cell viability was marked by the conversion of MTT to the dark-blue-colored formazan by mitochondrial dehydrogenases. DMSO was added to dissolve the insoluble purple formazan product, and optical density (OD) was measured by using a spectrophotometer at a wavelength of […]. The assay was performed in the dark as MTT is light-sensitive. Control wells of culture medium only (without cells) were included as blanks for absorbance measurements.
(§3) Cell viability was calculated according to the following formula: % Cell viability=(OD sample-OD blank/OD control-OD blank)×100 where the blank is given by wells without cells (medium only), control is untreated cells (100% viable).
For orientation: Formazan colour is commonly taken as a measure of viable cells.

Data set [2] deals with HeLa cells (cervical cancer). As to the kind of experiment: single dose MTT assay, HeLa. The data set is classed as cell-based. The following applies: 10 μM, 48 h, Mean ± SEM of three independent experiments.
Excerpt: as §1, §2, §3

Data set [3] concerns MCF7 cells (breast cancer). In words: single dose MTT assay, MCF7. The following applies: 10 μM, 48 h, Mean ± SEM of three independent experiments. The data set is classed as cell-based.
Excerpt: as §1, §2, §3

Data set [4] relates to MDA-MB-231 cells (breast cancer). As to the kind of experiment: single dose MTT assay, MDA-MB-231. The class given is cell-based. The following applies: 10 μM, 48 h, Mean ± SEM of three independent experiments.
Excerpt: as §1, §2, §3

Data set [5] has as its system SKOV3 cells (ovarian cancer). In words: single dose MTT assay, SKOV3. The data set is classed as cell-based. The following applies: 10 μM, 48 h, Mean ± SEM of three independent experiments.
Excerpt: as §1, §2, §3

Consider `O=c1nc(-c2c[nH]c3ccccc23)c2c(=O)[nH]c(=O)[nH]c2[nH]1` [Compound 4a, 5-(1H-Indol-3-Yl)Pyrimido[4,5-d]Pyrimidine-2,4,7(1H,3H,8H)-Trione], for which the melting point (usually the temperature of the solid-liquid transition) is 160 to 162 °C. Further, the “Anticancer effect on cancer cell lines A2780 (proliferation percentage)” value in data set [1] is recorded as 78 ± 3.60. In addition, the “Anticancer effect on cancer cell lines HeLa (proliferation percentage)” value in data set [2] came out at 57 ± 6.13. In addition, the “Anticancer effect on cancer cell lines MCF7 (proliferation percentage)” value in data set [3] turned out to be 98 ± 3.15. Moreover, the “Anticancer effect on cancer cell lines MDA-MB-231 (proliferation percentage)” value in data set [4] was 82 ± 1.01. Moreover, the “Anticancer effect on cancer cell lines SKOV3 (proliferation percentage)” value in data set [5] amounted to 79 ± 0.92.
Compound `O=c1nc(-c2c[nH]c3ccccc23)c2c(=O)[nH]c(=S)[nH]c2[nH]1` [Compound 4b, 4-(1H-Indol-3-Yl)-7-Thioxo-7,8-Dihydropyrimido[4,5-d]Pyrimidine-2,5(1H,6H)-Dione] displayed a melting point of 180 to 182 °C. In addition, the “Anticancer effect on cancer cell lines A2780 (proliferation percentage)” value in data set [1] came out at 82 ± 4.05. Further, the “Anticancer effect on cancer cell lines HeLa (proliferation percentage)” value in data set [2] was found to be 59 ± 2.91. The “Anticancer effect on cancer cell lines MCF7 (proliferation percentage)” value in data set [3] is 68 ± 4.57. Besides, the “Anticancer effect on cancer cell lines MDA-MB-231 (proliferation percentage)” value in data set [4] is 61 ± 6.00. Moreover, the “Anticancer effect on cancer cell lines SKOV3 (proliferation percentage)” value in data set [5] worked out at 69 ± 1.31.
The compound `Cn1c(=O)c2c(-c3c[nH]c4ccccc34)nc(=O)[nH]c2n(C)c1=O` [Compound 4c, 5-(1H-Indol-3-Yl)-1,3-Dimethylpyrimido[4,5-d]Pyrimidine-2,4,7(1H,3H,8H)-Trione] showed a melting point of 256 to 258 °C. For the same compound, in data set [1], the “Anticancer effect on cancer cell lines A2780 (proliferation percentage)” value turned out to be 63 ± 1.47. In addition, in data set [2], the “Anticancer effect on cancer cell lines HeLa (proliferation percentage)” value is 19 ± 1.58. In data set [3], the “Anticancer effect on cancer cell lines MCF7 (proliferation percentage)” value was 44 ± 3.90. The “Anticancer effect on cancer cell lines MDA-MB-231 (proliferation percentage)” value in data set [4] turned out to be 62 ± 1.35. The “Anticancer effect on cancer cell lines SKOV3 (proliferation percentage)” value in data set [5] was determined as 57 ± 3.40.
